Key:
CK1α = biological target: T1, CK1α (Homo sapiens, UniProt P48729+Q96SW2); assay: Western blot, degradation of substrate protein in hPBMCs; format: cell-based
T1 construct: effects of the compounds of the present disclosure on the expression of target proteins in cells; endogenous in cells; host or cells: human PBMCs (Milecell Biotechnologies)

IKZF1 = biological target: T2, IKZF1 (Homo sapiens, UniProt Q13422+Q96SW2); assay: as above; format: cell-based
T2 construct: effects of the compounds of the present disclosure on the expression of target proteins in cells; endogenous in cells; host or cells: human PBMCs (Milecell Biotechnologies)

IKZF2 = biological target: T3, IKZF2 (Homo sapiens, UniProt Q96SW2+Q9UKS7); assay: as above; format: cell-based
T3 construct: effects of the compounds of the present disclosure on the expression of target proteins in cells; endogenous in cells; host or cells: human PBMCs (Milecell Biotechnologies)

IKZF3 = biological target: T4, IKZF3 (Homo sapiens, UniProt Q96SW2+Q9UKT9); assay: as above; format: cell-based
T4 construct: effects of the compounds of the present disclosure on the expression of target proteins in cells; endogenous in cells; host or cells: human PBMCs (Milecell Biotechnologies)

WEE1 = biological target: T5, WEE1 (Homo sapiens, UniProt P30291+Q96SW2); assay: as above; format: cell-based
T5 construct: effects of the compounds of the present disclosure on the expression of target proteins in cells; endogenous in cells; host or cells: human PBMCs (Milecell Biotechnologies)

GSPT1 = assay: as above; format: cell-based, Human
[1] = biological target: T6, human Cereblon WT GST-tagged protein (Homo sapiens, UniProt Q96SW2); assay: CRBN-binding affinity, HTRF (CEREBLON BINDING kit); settings: for inhibition at 0.5 µM: read-out: Inhibition Rate at 0.5 µM (%); for inhibition at 2 µM: read-out: Inhibition Rate at 2 µM (%)
T6 construct: purchased CISBIO 64BDCRBNPEH

[2] = tested on: Human multiple myeloma peripheral blood B lymphocyte cell (RPMI-8226); assay: Tumor cell proliferation inhibition (CellTiter-Meiluncell luminescent cell viability assay); settings: RPMI-8226, 96 h; for inhibition at 0.01 µM: read-out: Inhibition Rate at 10 nM (%); for inhibition at 0.5 µM: read-out: Inhibition Rate at 500 nM (%)
[3] = tested on: Human multiple myeloma cell (MM.1S); assay: as above; settings: for inhibition at 0.01 µM / inhibition at 0.5 µM: Homo sapiens, MM1.S, 96 h; for inhibition at 0.01 µM: read-out: Inhibition Rate at 10 nM (%); for inhibition at 0.5 µM: read-out: Inhibition Rate at 500 nM (%)
[4] = tested on: Human myeloid monocytic leukemia cell (MV-4-11); assay: as above; settings: MV4-11, 96 h; for inhibition at 0.01 µM: read-out: Inhibition Rate at 10 nM (%); for inhibition at 0.5 µM: read-out: Inhibition Rate at 500 nM (%)
Experimental: (§1) The tumor cells used herein were cultured in a cell culture medium listed in table 2 at 37°C in an incubator with 5% CO2. Prior to experimentation, all cell lines used were correctly identified by STR profiling, and tested negative for mycoplasma contamination using a mycoplasma detection kit through routine screenings.
(§2) The IC50 values of the compounds of the present disclosure (including the compounds in Table 1 and Examples) were determined using the CellTiter-Meiluncell Luminescent Cell Viability Assay Kit from Dalian Meilun Biotech Co., Ltd. The detailed procedure is as follows: Tumor cells were seeded in 96-well cell culture plates at the densities specified in Table 3. On the following day, the test compounds of the present disclosure were subjected to serial dilution. The dilution can be performed according to one of the following two methods: • (1) The first dilution method: The test compounds of the present disclosure (including the compounds in Table 1 and Examples) were subjected to 5-fold serial dilutions starting from a highest concentration of 2000 µM, resulting in a total of 9 concentrations from high to low (2000, 400, 80, 16, 3.2, 0.64, 0.128, 0.0256, 0.00512 µM). Subsequently, 0.5 µL of the test compound dilution was transferred into the 96-well plate containing the cells, with each well containing 100 µL of cell culture medium. […] Into the 96-well plate, the diluted test compounds and corresponding detection reagents were added, resulting in final test compound concentrations of 500 nM and 10 nM, respectively. The experimental procedure is described below using the diluted 2 µM test compound as an example.
(§3) 0.5 µL of the aforementioned diluted compound of the present disclosure (including the compounds in Table 1 and Examples) was added to the seeded cells in 100 µL of medium, yielding a final test compound concentration of 10 nM. After the cells were treated with the compounds of the present disclosure for a specified period, the cell viability assay reagent was added to the culture medium according to the kit's instructions to determine cell viability. […] All controls were treated using the same procedure as the compounds of the present disclosure. The growth inhibition curves for the compounds of the present disclosure were plotted using Prism GraphPad software, and the IC50 values were calculated therefrom.

[5] = tested on: Human breast cancer cell (MCF-7); assay: as above; settings: MCF7, 96 h; for inhibition at 0.01 µM: read-out: Inhibition Rate at 10 nM (%); for inhibition at 0.5 µM: read-out: Inhibition Rate at 500 nM (%)
Experimental: as §1, §2, §3

[6] = tested on: Human acute T lymphocytic leukemia cell (Molt4); assay: as above; settings: MOLT-4, 96 h
[7] = Western blot, 24 hours of compound treatment, compounds tested at 50 nM and 500 nM (concentration for the table not stated)
[8] = 24 hours treatment, compounds at 50 nM and 500 nM (concentration behind the class not stated)

T4 sequence (Q9UKT9 whole entry): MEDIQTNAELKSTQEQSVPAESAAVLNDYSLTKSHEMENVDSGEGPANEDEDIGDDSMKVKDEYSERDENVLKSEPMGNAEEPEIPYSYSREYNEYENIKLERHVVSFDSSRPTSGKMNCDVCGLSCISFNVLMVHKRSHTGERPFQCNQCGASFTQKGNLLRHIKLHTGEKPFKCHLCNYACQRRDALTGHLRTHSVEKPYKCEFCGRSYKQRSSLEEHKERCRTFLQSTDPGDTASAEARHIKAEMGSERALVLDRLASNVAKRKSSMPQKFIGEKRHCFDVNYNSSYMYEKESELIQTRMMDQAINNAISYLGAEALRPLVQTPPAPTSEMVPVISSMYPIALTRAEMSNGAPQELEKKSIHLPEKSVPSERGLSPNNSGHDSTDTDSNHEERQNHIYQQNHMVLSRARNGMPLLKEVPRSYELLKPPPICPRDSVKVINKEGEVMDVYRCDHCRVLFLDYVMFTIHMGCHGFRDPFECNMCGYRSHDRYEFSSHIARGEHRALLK
T4 sequence (Q96SW2 whole entry): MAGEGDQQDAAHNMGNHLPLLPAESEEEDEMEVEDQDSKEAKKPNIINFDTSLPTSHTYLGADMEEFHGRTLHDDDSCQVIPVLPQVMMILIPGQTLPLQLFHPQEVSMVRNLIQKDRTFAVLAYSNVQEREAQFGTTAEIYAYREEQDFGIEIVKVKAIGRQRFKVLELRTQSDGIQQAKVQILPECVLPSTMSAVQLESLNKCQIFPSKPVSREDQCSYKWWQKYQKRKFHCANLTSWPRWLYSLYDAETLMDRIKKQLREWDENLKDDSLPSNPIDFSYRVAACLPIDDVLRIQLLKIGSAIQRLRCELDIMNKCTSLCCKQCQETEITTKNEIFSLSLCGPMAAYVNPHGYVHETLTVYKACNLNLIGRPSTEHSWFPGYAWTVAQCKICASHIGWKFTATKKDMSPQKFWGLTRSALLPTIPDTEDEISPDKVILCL
T4 sequence (Q16531 whole entry partner): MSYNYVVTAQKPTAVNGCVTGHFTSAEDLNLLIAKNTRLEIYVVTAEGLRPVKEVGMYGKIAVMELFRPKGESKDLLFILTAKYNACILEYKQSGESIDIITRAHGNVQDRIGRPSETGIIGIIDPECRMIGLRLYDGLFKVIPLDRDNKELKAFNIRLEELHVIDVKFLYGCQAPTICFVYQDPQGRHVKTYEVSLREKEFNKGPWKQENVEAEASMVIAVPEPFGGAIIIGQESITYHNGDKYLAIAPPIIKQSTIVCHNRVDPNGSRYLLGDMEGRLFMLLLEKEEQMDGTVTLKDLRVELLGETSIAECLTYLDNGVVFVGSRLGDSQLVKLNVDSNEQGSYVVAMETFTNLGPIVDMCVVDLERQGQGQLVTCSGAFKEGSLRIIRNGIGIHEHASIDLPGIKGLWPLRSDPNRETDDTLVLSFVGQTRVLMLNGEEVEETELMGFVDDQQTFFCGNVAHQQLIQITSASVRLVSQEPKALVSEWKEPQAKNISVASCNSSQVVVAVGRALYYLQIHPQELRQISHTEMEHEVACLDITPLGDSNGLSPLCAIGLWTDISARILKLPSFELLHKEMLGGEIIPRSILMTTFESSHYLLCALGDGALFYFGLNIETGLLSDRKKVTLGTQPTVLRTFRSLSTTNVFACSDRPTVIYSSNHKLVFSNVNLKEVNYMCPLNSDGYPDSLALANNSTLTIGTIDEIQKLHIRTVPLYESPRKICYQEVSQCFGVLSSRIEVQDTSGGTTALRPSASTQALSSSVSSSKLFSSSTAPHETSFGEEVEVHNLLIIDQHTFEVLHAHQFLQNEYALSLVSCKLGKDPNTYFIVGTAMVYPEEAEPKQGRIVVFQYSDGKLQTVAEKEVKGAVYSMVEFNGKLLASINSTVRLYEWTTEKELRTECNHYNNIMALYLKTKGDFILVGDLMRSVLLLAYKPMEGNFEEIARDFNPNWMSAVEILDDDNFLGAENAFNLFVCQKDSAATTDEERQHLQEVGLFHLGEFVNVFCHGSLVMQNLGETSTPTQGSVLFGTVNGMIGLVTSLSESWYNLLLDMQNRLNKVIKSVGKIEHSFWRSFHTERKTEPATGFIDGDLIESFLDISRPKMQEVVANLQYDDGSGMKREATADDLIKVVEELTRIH
T3 sequence (Q9UKS7 whole entry): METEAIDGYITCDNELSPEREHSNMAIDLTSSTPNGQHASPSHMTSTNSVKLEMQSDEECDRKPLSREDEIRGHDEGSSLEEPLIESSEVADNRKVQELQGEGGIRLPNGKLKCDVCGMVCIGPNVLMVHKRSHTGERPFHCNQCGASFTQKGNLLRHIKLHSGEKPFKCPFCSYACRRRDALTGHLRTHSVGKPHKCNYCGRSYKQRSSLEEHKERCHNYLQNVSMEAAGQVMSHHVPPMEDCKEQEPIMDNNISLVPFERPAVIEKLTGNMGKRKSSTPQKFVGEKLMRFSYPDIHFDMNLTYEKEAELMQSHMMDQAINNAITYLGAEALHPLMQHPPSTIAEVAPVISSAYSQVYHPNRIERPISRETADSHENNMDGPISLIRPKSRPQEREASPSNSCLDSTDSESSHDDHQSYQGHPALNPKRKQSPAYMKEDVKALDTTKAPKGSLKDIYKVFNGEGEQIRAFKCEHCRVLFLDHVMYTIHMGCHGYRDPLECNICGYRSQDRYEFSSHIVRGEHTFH
T3 sequence (Q96SW2 whole entry): as the sequence (Q96SW2 whole entry) above
T3 sequence (Q16531 whole entry partner): as the sequence (Q16531 whole entry partner) above
T2 sequence (Q13422 whole entry): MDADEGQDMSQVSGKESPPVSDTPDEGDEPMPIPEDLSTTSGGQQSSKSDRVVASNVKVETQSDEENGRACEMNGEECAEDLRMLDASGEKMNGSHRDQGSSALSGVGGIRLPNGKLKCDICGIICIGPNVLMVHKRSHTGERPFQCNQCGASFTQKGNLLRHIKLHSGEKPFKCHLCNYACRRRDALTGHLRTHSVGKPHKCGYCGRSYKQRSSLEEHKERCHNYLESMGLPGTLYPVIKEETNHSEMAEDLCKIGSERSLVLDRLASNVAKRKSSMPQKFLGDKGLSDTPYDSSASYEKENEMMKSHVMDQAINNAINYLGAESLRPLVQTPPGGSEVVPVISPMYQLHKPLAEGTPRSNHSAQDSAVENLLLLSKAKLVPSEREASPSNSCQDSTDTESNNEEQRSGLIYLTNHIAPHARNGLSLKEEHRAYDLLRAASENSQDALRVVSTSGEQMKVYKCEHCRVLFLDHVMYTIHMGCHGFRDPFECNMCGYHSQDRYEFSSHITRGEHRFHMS
T2 sequence (Q96SW2 whole entry): as the sequence (Q96SW2 whole entry) above
T2 sequence (Q16531 whole entry partner): as the sequence (Q16531 whole entry partner) above
T1 sequence (P48729 whole entry): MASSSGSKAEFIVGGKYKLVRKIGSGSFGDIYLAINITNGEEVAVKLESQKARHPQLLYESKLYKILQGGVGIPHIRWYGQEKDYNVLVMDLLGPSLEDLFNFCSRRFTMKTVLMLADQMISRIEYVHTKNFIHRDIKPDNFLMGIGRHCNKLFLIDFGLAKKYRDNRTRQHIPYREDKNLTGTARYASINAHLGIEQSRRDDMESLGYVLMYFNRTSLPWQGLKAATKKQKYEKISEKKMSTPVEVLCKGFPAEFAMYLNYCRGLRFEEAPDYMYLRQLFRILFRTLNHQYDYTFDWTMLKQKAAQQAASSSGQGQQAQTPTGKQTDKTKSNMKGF
T1 sequence (Q96SW2 whole entry): as the sequence (Q96SW2 whole entry) above
T1 sequence (Q16531 whole entry partner): as the sequence (Q16531 whole entry partner) above
T6 sequence (Q96SW2 whole entry): as the sequence (Q96SW2 whole entry) above
T5 sequence (P30291 whole entry): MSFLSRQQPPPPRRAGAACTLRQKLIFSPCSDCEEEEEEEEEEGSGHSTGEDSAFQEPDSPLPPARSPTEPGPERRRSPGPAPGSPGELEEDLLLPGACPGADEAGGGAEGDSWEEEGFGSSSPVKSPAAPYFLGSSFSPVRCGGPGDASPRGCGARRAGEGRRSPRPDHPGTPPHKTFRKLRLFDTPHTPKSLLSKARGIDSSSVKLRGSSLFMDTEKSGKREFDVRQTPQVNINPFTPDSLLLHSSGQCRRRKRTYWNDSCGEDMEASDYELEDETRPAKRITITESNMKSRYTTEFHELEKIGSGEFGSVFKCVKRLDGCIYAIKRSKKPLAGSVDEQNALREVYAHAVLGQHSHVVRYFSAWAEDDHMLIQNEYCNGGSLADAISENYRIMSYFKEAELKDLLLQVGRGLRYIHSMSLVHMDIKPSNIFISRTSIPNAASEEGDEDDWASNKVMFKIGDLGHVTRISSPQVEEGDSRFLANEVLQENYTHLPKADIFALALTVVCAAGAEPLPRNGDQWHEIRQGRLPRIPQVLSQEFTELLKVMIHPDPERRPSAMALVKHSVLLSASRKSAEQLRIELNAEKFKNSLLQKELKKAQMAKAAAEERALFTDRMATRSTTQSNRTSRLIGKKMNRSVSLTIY
T5 sequence (Q96SW2 whole entry): as the sequence (Q96SW2 whole entry) above
T5 sequence (Q16531 whole entry partner): as the sequence (Q16531 whole entry partner) above

Row | inhibition at 0.5 µM [1] [%] | inhibition at 2 µM [1] [%] | Compound | CK1α substrate protein remaining % (CK1α; [7]) | IKZF 1 substrate protein remaining % (IKZF1; [7]) | IKZF2 substrate protein remaining % (IKZF2; [7]) | IKZF3 substrate protein remaining % (IKZF3; [7]) | Wee1 substrate protein remaining % (WEE1; [7]) | GSPT1 substrate protein remaining % (GSPT1; [7]) | inhibition at 0.01 µM [2] [%] | inhibition at 0.5 µM [2] [%] | inhibition at 0.01 µM [3] [%] | inhibition at 0.01 µM [4] [%] | inhibition at 0.5 µM [4] [%] | inhibition at 0.01 µM [5] [%] | inhibition at 0.5 µM [5] [%] | further results
1 | 40 to 53 | 80 to 100 | O=C1CCC(N2Cc3c(CN4CCN(C(c5ccccc5)c5ccncc5)CC4)cccc3C2=S)C(=O)N1 (centres unmarked) [GT-08204, 3-(4-((4-(phenyl(pyridin-4-yl)methyl)piperazin-1-yl)methyl)-1-thioxoisoindolin-2-yl)piperidine-2,6-dione] | B (80%< substrate protein remaining %≤ 100%) | B (80%< substrate protein remaining %≤ 100%) | B (80%< substrate protein remaining %≤ 100%) | B (80%< substrate protein remaining %≤ 100%) | A (0% ≤ substrate protein remaining % ≤ 80%) | B (80%< substrate protein remaining %≤ 100%) | 60 to 70 | 70 to 80 | – | – | – | – | – | –
2 | 40 to 53 | 60 to 80 | O=C1CCC(N2Cc3c(CN4C[C@@H]5C[C@H]4CN5C(c4ccccc4)c4ccccc4)cccc3C2=S)C(=O)N1 (stereo partly drawn) [GT-08207, 3-(4-(((1 S,4S)-5-benzhydryl-2,5-diazabicyclo[2.2.1]heptan-2-yl)methyl)-1-thioxoisoindolin-2-yl)piperidine-2,6-dione] | B (80%< substrate protein remaining %≤ 100%) | A (0% ≤ substrate protein remaining % ≤ 80%) | B (80%< substrate protein remaining %≤ 100%) | B (80%< substrate protein remaining %≤ 100%) | A (0% ≤ substrate protein remaining % ≤ 80%) | A (0% ≤ substrate protein remaining % ≤ 80%) | 50 to 60 | 60 to 70 | – | – | – | – | – | –
3 | 30 to 40 | 60 to 80 | Cc1ccc(N2CCN(Cc3cccc4c3CN(C3CCC(=O)NC3=O)C4=S)CC2)c(C)c1 (centres unmarked) [GT-08504, 3-(4-((4-(2,4-dimethylphenyl)piperazin-1-yl)methyl)-1-thioxoisoindolin-2-yl)piperidine-2,6-dione] | B (80%< substrate protein remaining %≤ 100%) | B (80%< substrate protein remaining %≤ 100%) | B (80%< substrate protein remaining %≤ 100%) | A (0% ≤ substrate protein remaining % ≤ 80%) | A (0% ≤ substrate protein remaining % ≤ 80%) | A (0% ≤ substrate protein remaining % ≤ 80%) | – | – | 30 to 40 | 40 to 60 | 40 to 60 | 20 to 30 | 40 to 50 | inhibition at 0.5 µM [3]: 50 to 60%
4 | 60 to 80 | 80 to 100 | O=C1CCC(N2Cc3c(CN4CCN(c5n[nH]c6cc(F)ccc56)CC4)cccc3C2=S)C(=O)N1 (centres unmarked) [GT-08840, 3-(4-((4-(6-fluoro-1H-indazol-3-yl)piperazin-1-yl)methyl)-1-thioxoisoindolin-2-yl)piperidine-2,6-dione] | B (80%< substrate protein remaining %≤ 100%) | B (80%< substrate protein remaining %≤ 100%) | B (80%< substrate protein remaining %≤ 100%) | B (80%< substrate protein remaining %≤ 100%) | A (0% ≤ substrate protein remaining % ≤ 80%) | B (80%< substrate protein remaining %≤ 100%) | – | – | – | 40 to 60 | 40 to 60 | 50 to 60 | 60 to 70 | –

Further lines, the compound ahead of its results:

Row | Compound | inhibition at 0.5 µM [1] [%] | inhibition at 2 µM [1] [%] | CK1α substrate protein remaining % (CK1α; [7]) | IKZF 1 substrate protein remaining % (IKZF1; [7]) | IKZF2 substrate protein remaining % (IKZF2; [7]) | IKZF3 substrate protein remaining % (IKZF3; [7]) | Wee1 substrate protein remaining % (WEE1; [7]) | GSPT1 substrate protein remaining % (GSPT1; [7]) | inhibition at 0.01 µM [2] [%] | inhibition at 0.5 µM [2] [%] | inhibition at 0.01 µM [3] [%] | inhibition at 0.01 µM [4] [%] | inhibition at 0.5 µM [4] [%] | inhibition at 0.01 µM [5] [%] | inhibition at 0.5 µM [5] [%] | further results
5 | O=C1CCC(N2Cc3c(CN4CCN(CC5=C(c6ccc(F)cc6)CCCC5)CC4)cccc3C2=S)C(=O)N1 (centres unmarked) [GT-08293, 3-(4-((4-((4'-fluoro-3,4,5,6-tetrahydro-[1,1'-biphenyl]-2-yl)methyl)piperazin-1-yl)methyl)-1-thioxoisoindolin-2-yl)piperidine-2,6-dione] | 30 to 40 | 60 to 80 | B (80%< substrate protein remaining %≤ 100%) | B (80%< substrate protein remaining %≤ 100%) | B (80%< substrate protein remaining %≤ 100%) | B (80%< substrate protein remaining %≤ 100%) | A (0% ≤ substrate protein remaining % ≤ 80%) | B (80%< substrate protein remaining %≤ 100%) | 20 to 30 | 40 to 50 | – | – | – | – | – | –
6 | Cc1cc(N2CCN(Cc3ccc4c(c3)CN(C3CCC(=O)NC3=O)C4=S)CC2)cc(C)n1 (centres unmarked) [GT-09247, 3-(5-((4-(2,6-dimethylpyridin-4-yl)piperazin-1-yl)methyl)-1-thioxoisoindolin-2-yl)piperidine-2,6-dione] | 60 to 80 | 80 to 100 | – | – | – | – | – | – | – | – | 50 to 60 | 40 to 60 | 40 to 60 | 20 to 30 | 40 to 50 | Inhibition Rate at 500 nM (%) ([3]; MM.1S, 500 nM, 96 hours): la7
7 | Cn1cc(C2CCN(Cc3ccc4c(c3)CN(C3CCC(=O)NC3=O)C4=S)CC2)c2ccc(F)cc21 (centres unmarked) [GT-09267, 3-(5-((4-(6-fluoro-1-methyl-1H-indol-3-yl)piperidin-1-yl)methyl)-1-thioxoisoindolin-2-yl)piperidine-2,6-dione] | 53 to 60 | 80 to 100 | – | – | – | – | – | – | – | – | 70 to 80 | 80 to 100 | 80 to 100 | 5 to 10 | 70 to 80 | CK1α substrate protein remaining % (CK1α; [8]): B (80%< substrate protein remaining %≤ 100%); IKZF 1 substrate protein remaining % (IKZF1; [8]): A (0% ≤ substrate protein remaining % ≤ 80%); IKZF2 substrate protein remaining % (IKZF2; [8]): A (0% ≤ substrate protein remaining % ≤ 80%); IKZF3 substrate protein remaining % (IKZF3; [8]): A (0% ≤ substrate protein remaining % ≤ 80%); Wee1 substrate protein remaining % (WEE1; [8]): A (0% ≤ substrate protein remaining % ≤ 80%); GSPT1 substrate protein remaining % (GSPT1; [8]): A (0% ≤ substrate protein remaining % ≤ 80%); inhibition at 0.5 µM [3]: 80 to 100%; inhibition at 0.01 µM ([6]; read-out: Inhibition Rate at 10 nM (%)): 80 to 100%; inhibition at 0.5 µM ([6]; read-out: Inhibition Rate at 500 nM (%)): 80 to 100%
8 | O=C1CCC(N2Cc3cc(CN4CCC(N5CCCc6cc(F)ccc65)CC4)ccc3C2=S)C(=O)N1 (centres unmarked) [GT-09271, 3-(5-((4-(6-fluoro-3,4-dihydroquinolin-1(2H)-yl)piperidin-1-yl)methyl)-1-thioxoisoindolin-2-yl)piperidine-2,6-dione] | 60 to 80 | 80 to 100 | – | – | – | – | – | – | – | – | – | 40 to 60 | 40 to 60 | 20 to 30 | 40 to 50 | –

From patent EP4745135A1 (Gluetacs Therapeutics (Shanghai) Co., Ltd., priority 2023, dated 2025)
